Measured values taken from US12297453B2, “Generation of norepinephrine neurons from human stem cells” (Wisconsin Alumni Research Foundation, priority 2020, dated 2025).

Legend:
Assay type in all cases: cell-based, human
hESCs (H9 line) = assay: Patterning of hESCs to hindbrain R1 neuroepithelial cells with a CHIR99021 dose series (RT-qPCR, flow cytometry, immunocytochemistry)
Description: (§1) On day 5, change the medium without SB431542. […] Cells were feed daily.
gRNA was designed according to Benchling. Donor plasmid was generated by NEBuilder® HiFi DNA Assembly Master Mix (NEB, E2621S). Briefly, hPSCs were digested by TrypLE Express. Gene Pulser Xcell (Bio-Rad) was used for CRISPR/Cas9 delivery. Two-million cells were electroporated with 15 μg of sgRNA plasmid (pLenti-CRISPR) with 30 μg donor plasmid. Cells were plated at ˜150,000 cells/well of 6-well plate. Starting 24 hours after electroporation, 0.5 μg/ml puromycin were added to the culture medium. After 3 days of puromycin selection, hPSCs were switched to their normal culture medium and fed every other day until approximately 1-2 weeks after electroporation when distinct colonies were established. • Cell transplantation: Small aggregates of NE neural progenitors (day 10-day 12) were collected and suspended in artificial cerebral spinal fluid (aCSF) containing Rock inhibitor (0.5 μM), at a concentration of 100,000 cells/μl. 1 μl of cells were slowly injected into the left cortex (AP=+0.0 mm, ML=+1.8 mm, DV=−1.7 mm, from skull) of adult SCID mice (8-12 weeks) that were anesthetized with 1%-2% isoflurane mixed in oxygen. • Immunocytochemistry and flow cytometry: Immunocytochemistry was performed as described previously. See Huang et al., 2016, Sci Rep, 6:32600, doi:10.1038/srep32600. In brief, cells on coverslips were fixed in 4% neutral-buffered paraformaldehyde (PFA) for 10 minutes (min) at room temperature. Following rinsing with PBS, these cells were incubated in 0.2% Triton X-100 (in phosphate buffered saline (PBS)) for 10 min followed by 10% donkey serum (in PBS) at room temperature for 1 hour (h). The cells were then incubated with primary antibodies diluted in 5% donkey serum in 0.1% Triton X100 (in PBS) at 4° C. overnight, followed by fluorescently conjugated secondary antibodies at room temperature for 30 min. The nuclei were stained with Hoechst. Images were collected with a Nikon A1 laser-scanning confocal microscope. Flow cytometry was performed using Transcription Factor Buffer Set which is designed for transcription factor staining following manufacturer's instruction. Briefly, single cells were prepared using TrypLE Express Enzyme and fixed in the fixation buffer provided by the kit at 2-8° C. for 45 min. After 3 washings with the permeable buffer, primary antibodies were added to cells for 45 min at 2-8° C. in a light-tight box. Cells were washed three times before fluorescently conjugated secondary antibodies. Second antibodies were incubated with cells for 45 minutes at 2-8° C. in a light-tight box and followed by washing three times. After the last wash, cells were suspended in washing buffer and analyzed by flow cytometry (BD LSR or BD LSRII). Data analysis was performed using FlowJo. • ELISA: To detect NE release into medium during neuronal differentiation, supernatant was collected at indicated time points along differentiation. Enzyme-linked immunosorbent assay (ELISA) were performed using a Noradrenaline (Norepinephrine) ELISA Assay Kit (EAGLE, NOR31-K01) following the manufacturer's instructions. • Electrophysiology: Whole-cell patch-clamp recordings were made from human ESC-derived NE neurons at 4 weeks. Briefly, the NE neurons were held at −70 mV to record the Na+/K+ channel activities with voltage-clamp model. For recording action potentials, the cells were held at 0 pA with the current-clamp model, and with the steps of injected currents from −50 pA to +50 pA. The bath solution consisted of 135 mM NaCl, 3 mM KCl, 2 mM CaCl2), 1 mM MgCl2, 10 mM HEPES, 11 mM glucose, 10 mM sucrose, pH7.4. […]

[1] = test system: hindbrain R1 neuroepithelial cells; assay: NE progenitor fate specification of hindbrain R1 neuroepithelial cells (qPCR of MASH1, PHOX2B, PHOX2A and regional markers); conditions: for effect on expression of MASH1, PHOX2B, and PHOX2A: day 6 to day 12
Description: as §1
Development of NE neurons in LC depends on expression of Mash1, Phox2b and Phox2a in a stage dependent manner. See Pattyn et al., 2000, Mol Cell Neurosci, 15:235-243; Morin et al., 1997, Neuron, 18:411-423; Hirsch et al., 1998, Development, 125:599-608. Mash1 is expressed in the proliferative progenitor cells, while Phox2b and Phox2a are expressed when cells became postmitotic precursors and neurons. Pattyn et al., 2000. […] Thus, the effects of FGF8 and BMPs were tested in the second week of differentiation (FIG. 2B).
In further experiments it was determined whether the unique role of Activin A on human NE neuron specification was regional identity dependent. Neuroepithelial cells ranging from anterior forebrain to posterior hindbrain were obtained using different doses of CHIR99021, and then these neuroepithelial cells were treated with 25 ng/ml Activin A for 6 days.
Specifically, gene expression of MASH1 and PHOX2A/2B at different times was observed when NE progenitors were cultured in the presence of a low dose of Activin A (25 ng/ml) or a high dose of Activin A (125 ng/ml).
To determine whether blockade of BMP pathway or SHH pathway could facilitate NE specification, which could narrow the domain along the dorsal to ventral axis, hindbrain R1 neuroepithelial cells were treated with Activin A with or without BMP and SHH antagonist (FIGS. 3D-3I).

[2] = test system: GRABNE1m sensor-expressing NE neurons; assay: Fluorescence imaging of GRABNE1m sensor cells; conditions: 1 μM

Cc1c[nH]c(-c2cnc(NCCNc3ccc(C#N)cn3)nc2-c2ccc(Cl)cc2Cl)n1 [CHIR99021]
cells expressing EN1 by immunocytochemistry (hESCs (H9 line); 1 μM, day 6): majority of the cells | cells positive for OTX2 and HOXA2 by immunocytochemistry (hESCs (H9 line); 1 μM, day 6): few or no cells | concentration above which EN1, EN2, PAX2 mRNA began to down-regulate and HOXA2, GBX2 increased (hESCs (H9 line); 6 days, mRNA level): above 0.6 μM | concentration at which PHOX2B and PHOX2A reached their highest level (hESCs (H9 line); dose increment, 6 days): around 1 μM | expression of midbrain transcription factor genes EN1, EN2, PAX2 (hESCs (H9 line); increasing concentrations over 6 days): upregulated | expression of OTX2 at mRNA and protein levels (hESCs (H9 line); increasing concentrations over 6 days, RT-qPCR and flow cytometry): down-regulated

CC(C)Oc1ccc(-c2cnc3c(-c4ccnc5ccccc45)cnn3c2)cc1 [DMH1, 4-[6-(4-Isopropoxyphenyl)pyrazolo[1,5-a]pyrimidin-3-yl]quinoline]
increase of NE progenitor markers ([1]; 2 μM, with Activin A): 1.5 fold

NC[C@H](O)c1ccc(O)c(O)c1 [Norepinephrine]
intensity of GRABNE1m sensor fluorescence [2]: increased

CC1=C2C[C@H]3[C@@H](CC=C4C[C@@H](O)CC[C@@]43C)[C@@H]2CC[C@]12O[C@@H]1C[C@H](C)CN[C@H]1[C@H]2C [cyclopamine]
effect on NE progenitor markers MASH1 and PHOX2A/2B ([1]; 2 μM, with Activin A): only minor effects | expression of dorsal markers MATH1 and OLIG3 ([1]; 2 μM, with Activin A): increased expression

TGF-β1: transforming growth factor β1
effect on expression of MASH1, PHOX2B, and PHOX2A ([1]; 10 ng/ml): not

B1: FGF8: growth factor tested for NE fate specification (protein, UniProt P55075 23-233, looked up)
Fibroblast growth factor 8: QEGPGRGPALGRELASLFRAGREPQGVSQQHVREQSLVTDQLSRRLIRTYQLYSRTSGKHVQVLANKRINAMAEDGDPFAKLIVETDTFGSRVRVRGAETGLYICMNKKGKLIAKSNGKGKDCVFTEIVLENNYTALQNAKYEGWYMAFTRKGRPRKGSKTRQHQREVHFMKRLPRGHHTTEQSLRFEFLNYPPFTRSLRGSQRTWAPEPR
effect on expression of MASH1, PHOX2B, and PHOX2A ([1]; 100 ng/ml): no obvious effects

B2: BMP7: bone morphogenetic protein (protein, UniProt P18075 293-431, looked up)
Bone morphogenetic protein 7: STGSKQRSQNRSKTPKNQEALRMANVAENSSSDQRQACKKHELYVSFRDLGWQDWIIAPEGYAAYYCEGECAFPLNSYMNATNHAIVQTLVHFINPETVPKPCCAPTQLNAISVLYFDDSSNVILKKYRNMVVRACGCH
effect on expression of MASH1, PHOX2B, and PHOX2A ([1]; 10 ng/ml): no obvious effects

B3: Activin A: ligand in TGF-β pathway directing NE cell fate specification (protein, UniProt P08476 311-426, looked up)
Inhibin beta A chain: GLECDGKVNICCKKQFFVSFKDIGWNDWIIAPSGYHANYCEGECPSHIAGTSGSSLSFHSTVINHYRMRGHSPFANLKSCCVPTKLRPMSMLYYDDGQNIIKKDIQNMIVEECGCS
concentration at which MASH1 reached maximum expression level [1]: 25 ng/mL | concentration at which PHOX2B and PHOX2A reached maximum level [1]: 250 ng/mL | effect on expression of MASH1, PHOX2B, and PHOX2A ([1]; 10 ng/ml): positive effect | PHOX2B expression, high dose (125 ng/ml) versus low dose (25 ng/ml) ([1]; day 9): similar | MASH1 expression, high dose (125 ng/ml) versus low dose (25 ng/ml) ([1]; day 9 to day 12): no obvious difference | PHOX2B expression, high dose (125 ng/ml) versus low dose (25 ng/ml) ([1]; day 12): over 2 fold | increase of MASH1, PHOX2B, and PHOX2A expression with dose ([1]; series of Activin A concentrations): dose-dependent manner

B4: BMP5: bone morphogenetic protein (protein, UniProt P22003 317-454, looked up)
Bone morphogenetic protein 5: AANKRKNQNRNKSSSHQDSSRMSSVGDYNTSEQKQACKKHELYVSFRDLGWQDWIIAPEGYAAFYCDGECSFPLNAHMNATNHAIVQTLVHLMFPDHVPKPCCAPTKLNAISVLYFDDSSNVILKKYRNMVVRSCGCH
effect on expression of MASH1, PHOX2B, and PHOX2A ([1]; 10 ng/ml): no obvious effects

B5: BMP4: bone morphogenetic protein (protein, UniProt P12644 293-408, looked up)
Bone morphogenetic protein 4: SPKHHSQRARKKNKNCRRHSLYVDFSDVGWNDWIVAPPGYQAFYCHGDCPFPLADHLNSTNHAIVQTLVNSVNSSIPKACCVPTELSAISMLYLDEYDKVVLKNYQEMVVEGCGCR
effect on expression of MASH1, PHOX2B, and PHOX2A ([1]; 10 ng/ml): no obvious effects
